Reference: patent publication US8048862B2, “Macrocyclic inhibitors of hepatitis C virus replication” (priority 2008, dated 2011)

Tests used:
[1] = biological target: NS3/NS4 complexes (Hepatitis C virus genotype 1a, UniProt P27958); test: NS3/NS4 inhibition activity (IC50); format: biochemical; conditions: Table 2, read-out: IC50
Description: NS3-NS4 inhibition activity can be determined using known assay methods. For example, NS3/NS4 complexes may be formed and inhibitory concentrations of test compounds determined as described in U.S. Patent Application Publication Number 2007/0054842 paragraph numbers 1497-1509, which is incorporated herein by reference in its entirety. Similarly, hepatitis C replicon EC50 may be determined using known assay methods such as described in U.S. Patent Application Publication Number 2007/0054842 paragraph numbers 1510-1515. Assays may be conducted at ambient temperature (23° C.) in assay buffer containing 50 mM Tris-HCl, pH 7.5, 15% glycerol, 0.6 mM Lauryldimethylamine Oxide (LDAO), 25 μM NS4A peptide, and 10 mM Dithiothreitol (DTT).

[2] = system: hepatitis C replicon; test: hepatitis C replicon EC50; format: cell-based; conditions: Hepatitis C virus; Table 2; hepatitis C replicon; read-out: EC50
Description: NS3-NS4 inhibition activity can be determined using known assay methods.

Chain of NS3/NS4 complexes (P27958 1027-1657): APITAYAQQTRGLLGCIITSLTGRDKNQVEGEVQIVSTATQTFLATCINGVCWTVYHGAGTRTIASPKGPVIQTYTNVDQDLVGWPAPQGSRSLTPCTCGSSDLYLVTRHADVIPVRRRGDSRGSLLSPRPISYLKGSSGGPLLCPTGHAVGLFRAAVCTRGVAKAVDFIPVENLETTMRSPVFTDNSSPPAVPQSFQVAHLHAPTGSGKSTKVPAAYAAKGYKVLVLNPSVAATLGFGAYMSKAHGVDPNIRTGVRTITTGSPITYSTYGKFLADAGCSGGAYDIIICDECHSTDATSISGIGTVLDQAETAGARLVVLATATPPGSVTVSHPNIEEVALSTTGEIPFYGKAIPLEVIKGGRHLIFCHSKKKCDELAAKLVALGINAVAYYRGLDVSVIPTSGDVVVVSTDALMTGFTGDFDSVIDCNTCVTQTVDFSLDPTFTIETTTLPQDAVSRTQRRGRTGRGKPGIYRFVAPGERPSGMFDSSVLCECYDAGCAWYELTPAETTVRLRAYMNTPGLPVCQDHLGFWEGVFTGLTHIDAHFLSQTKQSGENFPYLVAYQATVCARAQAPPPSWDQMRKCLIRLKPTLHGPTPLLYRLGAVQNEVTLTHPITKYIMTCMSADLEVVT
Chain of NS3/NS4 complexes (P27958 1658-1711): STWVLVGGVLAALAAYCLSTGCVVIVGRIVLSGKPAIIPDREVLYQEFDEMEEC

O=C1N[C@]2(C(=O)O)C[C@H]2/C=C\CCCCC[C@H](Nc2cccc(C(F)(F)F)c2)C(=O)N2C[C@H](Oc3nc4ccccc4s3)C[C@@H]12 [Compound 110]
IC50 [1]: 10 to 75 nM
EC50 [2]: > 500 nM

CC(C)(C)c1csc(N[C@H]2CCCCC/C=C\[C@@H]3C[C@@]3(C(=O)O)NC(=O)[C@@H]3C[C@@H](Oc4nc5ccccc5s4)CN3C2=O)n1 [Compound 119]
IC50 [1]: 10 to 75 nM
EC50 [2]: > 500 nM

O=C1N[C@]2(C(=O)NS(=O)(=O)C3CC3)C[C@H]2/C=C\CCCCC[C@H](Nc2ccccc2)C(=O)N2C[C@H](Oc3nc4ccccc4s3)C[C@@H]12 [Compound 157]
IC50 [1]: < 10 nM
EC50 [2]: 10 to 75 nM

COc1ccc2c(O[C@@H]3C[C@H]4C(=O)N[C@]5(C(=O)NS(=O)(=O)C6CC6)C[C@H]5/C=C\CCCCC[C@H](Nc5ccccc5)C(=O)N4C3)cc(-c3ccccc3)nc2c1 [Compound 164]
IC50 [1]: < 10 nM
EC50 [2]: < 10 nM

O=C1N[C@]2(C(=O)NS(=O)(=O)C3CC3)C[C@H]2/C=C\CCCCC[C@H](NCc2ccccc2)C(=O)N2C[C@H](Oc3nc4ccccc4s3)C[C@@H]12 [Compound 197]
IC50 [1]: < 10 nM
EC50 [2]: 10 to 75 nM

CC1(S(=O)(=O)NC(=O)[C@@]23C[C@H]2/C=C\CCCCC[C@H](Nc2ccccc2)C(=O)N2C[C@H](Oc4nc5ccccc5s4)C[C@H]2C(=O)N3)CC1 [Compound 213]
IC50 [1]: < 10 nM
EC50 [2]: 10 to 75 nM

CC1(S(=O)(=O)NC(=O)[C@@]23C[C@H]2/C=C\CCCCC[C@H](Nc2ccccc2)C(=O)N2C[C@H](Oc4nc5ccc(Br)cc5s4)C[C@H]2C(=O)N3)CC1 [Compound 214]
IC50 [1]: < 10 nM
EC50 [2]: 75 to 500 nM

CC1(S(=O)(=O)NC(=O)[C@@]23C[C@H]2/C=C\CCCCC[C@H](Nc2ccccc2)C(=O)N2C[C@H](Oc4nc5ccc(Cl)cc5s4)C[C@H]2C(=O)N3)CC1 [Compound 217]
IC50 [1]: < 10 nM
EC50 [2]: 75 to 500 nM

Cc1ccc2nc(O[C@@H]3C[C@H]4C(=O)N[C@]5(C(=O)NS(=O)(=O)C6(C)CC6)C[C@H]5/C=C\CCCCC[C@H](Nc5ccccc5)C(=O)N4C3)sc2c1 [Compound 218]
IC50 [1]: < 10 nM
EC50 [2]: 75 to 500 nM

COc1ccc2c(O[C@@H]3C[C@H]4C(=O)N[C@]5(C(=O)NS(=O)(=O)C6(C)CC6)C[C@H]5/C=C\CCCCC[C@H](Nc5ccccc5)C(=O)N4C3)cc(-c3ccccc3)nc2c1 [Compound 220]
IC50 [1]: < 10 nM
EC50 [2]: < 10 nM

CC1(S(=O)(=O)NC(=O)[C@@]23C[C@H]2/C=C\CCCCC[C@H](Nc2ccccc2)C(=O)N2C[C@H](Oc4nccc5ccccc45)C[C@H]2C(=O)N3)CC1 [Compound 221]
IC50 [1]: < 10 nM
EC50 [2]: 10 to 75 nM

CC1(S(=O)(=O)NC(=O)[C@@]23C[C@H]2/C=C\CCCCC[C@H](Nc2cccc(C(F)(F)F)c2)C(=O)N2C[C@H](Oc4nc5ccccc5s4)C[C@H]2C(=O)N3)CC1 [Compound 222]
IC50 [1]: < 10 nM
EC50 [2]: 75 to 500 nM

CC1(S(=O)(=O)NC(=O)[C@@]23C[C@H]2/C=C\CCCCC[C@H](Nc2cccc(C(F)(F)F)c2)C(=O)N2C[C@H](Oc4nc5ccc(Br)cc5s4)C[C@H]2C(=O)N3)CC1 [Compound 223]
IC50 [1]: < 10 nM
EC50 [2]: 75 to 500 nM

CC1(S(=O)(=O)NC(=O)[C@@]23C[C@H]2/C=C\CCCCC[C@H](Nc2cccc(C(F)(F)F)c2)C(=O)N2C[C@H](Oc4nc5ccc(Cl)cc5s4)C[C@H]2C(=O)N3)CC1 [Compound 226]
IC50 [1]: < 10 nM
EC50 [2]: 75 to 500 nM

Cc1ccc2nc(O[C@@H]3C[C@H]4C(=O)N[C@]5(C(=O)NS(=O)(=O)C6(C)CC6)C[C@H]5/C=C\CCCCC[C@H](Nc5cccc(C(F)(F)F)c5)C(=O)N4C3)sc2c1 [Compound 227]
IC50 [1]: < 10 nM
EC50 [2]: 75 to 500 nM

COc1ccc2c(O[C@@H]3C[C@H]4C(=O)N[C@]5(C(=O)NS(=O)(=O)C6(C)CC6)C[C@H]5/C=C\CCCCC[C@H](Nc5cccc(C(F)(F)F)c5)C(=O)N4C3)cc(-c3ccccc3)nc2c1 [Compound 229]
IC50 [1]: < 10 nM
EC50 [2]: < 10 nM

CC1(S(=O)(=O)NC(=O)[C@@]23C[C@H]2/C=C\CCCCC[C@H](Nc2cccc(C(F)(F)F)c2)C(=O)N2C[C@H](Oc4nccc5ccccc45)C[C@H]2C(=O)N3)CC1 [Compound 230]
IC50 [1]: < 10 nM
EC50 [2]: < 10 nM
